This note sets out measurements from US20260363243A1 (priority 2022, published 2026).

The subject of the assay is cucumber downy mildew. The assay can be described thus: Activity in vivo for inhibiting cucumber downy mildew (potting method, greenhouse).
[1] abbreviates: 0.078 mg/L, re-screening, Table 2.
Setting [2] is: 0.312 mg/L, re-screening, Table 2.
[3] abbreviates: 1.25 mg/L, re-screening, Table 2.

Description: The test and investigation method refers to a SOP-SC-1098 cucumber downy mildew potting method in the fungicide section of Standard operation Specification for testing biological Activity of pesticides written by Kang Zhuo and Gu Baogen.

For `CO/C=C/C(=O)N1CCC(c2nc(C3=NOC(c4c(F)cccc4F)C3)cs2)CC1` (stereo not shown) [Compound I-1], the Control effect result (1.25 mg/L, Table 1) was “A (90%≤A≤100%)”; the Control effect entry (5 mg/L, Table 1) is reported as “A (90%≤A≤100%)”; the Control effect result (20 mg/L, Table 1) is listed as “A (90%≤A≤100%)”.
On to `CO/C=C(\F)C(=O)N1CCC(c2nc(C3=NOC(c4c(F)cccc4F)C3)cs2)CC1` (stereo not shown) [Compound I-2], for which the Control effect entry is, setting by setting: (1.25 mg/L, Table 1) “B (75%≤B<90%)”; (5 mg/L, Table 1) “B (75%≤B<90%)”; (20 mg/L, Table 1) “A (90%≤A≤100%)”.
For the compound `CO/C=C(\Cl)C(=O)N1CCC(c2nc(C3=NOC(c4c(F)cccc4F)C3)cs2)CC1` (stereo not shown) [Compound I-3], the Control effect entry is “A (90%≤A≤100%)” (1.25 mg/L, Table 1); “A (90%≤A≤100%)” (5 mg/L, Table 1); “A (90%≤A≤100%)” (20 mg/L, Table 1).
On to `CO/C=C(\Br)C(=O)N1CCC(c2nc(C3=NOC(c4c(F)cccc4F)C3)cs2)CC1` (stereo not shown) [Compound I-4], for which the Control effect result is “B (75%≤B<90%)” (1.25 mg/L, Table 1); “A (90%≤A≤100%)” (5 mg/L, Table 1); “A (90%≤A≤100%)” (20 mg/L, Table 1).
Turning to `CO/C=C(\I)C(=O)N1CCC(c2nc(C3=NOC(c4c(F)cccc4F)C3)cs2)CC1` (stereo not shown) [Compound I-5], the Control effect entry is, setting by setting: (1.25 mg/L, Table 1) “C (60%≤C<75%)”; (5 mg/L, Table 1) “B (75%≤B<90%)”; (20 mg/L, Table 1) “B (75%≤B<90%)”.
On to `CO/C=C(\C#N)C(=O)N1CCC(c2nc(C3=NOC(c4c(F)cccc4F)C3)cs2)CC1` (stereo not shown) [Compound I-6], for which the Control effect result (20 mg/L, Table 1) is “B (75%≤B<90%)”.
On to `CO/C=C(\C)C(=O)N1CCC(c2nc(C3=NOC(c4c(F)cccc4F)C3)cs2)CC1` (stereo not shown) [Compound I-7], for which the Control effect entry is, setting by setting: (5 mg/L, Table 1) “B (75%≤B<90%)”; (20 mg/L, Table 1) “A (90%≤A≤100%)”.
In the case of `CC/C(=C\OC)C(=O)N1CCC(c2nc(C3=NOC(c4c(F)cccc4F)C3)cs2)CC1` (stereo not shown) [Compound I-8], the Control effect entry by setting is: (1.25 mg/L, Table 1) “A (90%≤A≤100%)”; (5 mg/L, Table 1) “A (90%≤A≤100%)”; (20 mg/L, Table 1) “A (90%≤A≤100%)”.
As for `CCC/C(=C\OC)C(=O)N1CCC(c2nc(C3=NOC(c4c(F)cccc4F)C3)cs2)CC1` (stereo not shown) [Compound I-9], the Control effect result is “A (90%≤A≤100%)” (1.25 mg/L, Table 1); “A (90%≤A≤100%)” (5 mg/L, Table 1); “A (90%≤A≤100%)” (20 mg/L, Table 1).
As to `CO/C=C(/C(=O)N1CCC(c2nc(C3=NOC(c4c(F)cccc4F)C3)cs2)CC1)C(C)C` (stereo not shown) [Compound I-10], the Control effect result by setting is: (1.25 mg/L, Table 1) “A (90%≤A≤100%)”; (5 mg/L, Table 1) “A (90%≤A≤100%)”; (20 mg/L, Table 1) “A (90%≤A≤100%)”.
Turning to `CO/C=C(/C(=O)N1CCC(c2nc(C3=NOC(c4c(F)cccc4F)C3)cs2)CC1)c1ccccc1C` (stereo not shown) [Compound I-11], the Control effect entry (20 mg/L, Table 1) is reported as “C (60%≤C<75%)”.
For the compound `CO/C=C(/C(=O)N1CCC(c2nc(C3=NOC(c4c(F)cccc4F)C3)cs2)CC1)c1ccccc1` (stereo not shown) [Compound I-12], the Control effect result (5 mg/L, Table 1) is recorded as “D (45%≤D<60%)” and the Control effect result (20 mg/L, Table 1) was “B (75%≤B<90%)”.
The like results for `CO/C=C(/C(=O)N1CCC(c2nc(C3=NOC(c4c(F)cccc4F)C3)cs2)CC1)c1ccc(C)cc1` (stereo not shown) [Compound I-13] were, in that order, “B (75%≤B<90%)” and “A (90%≤A≤100%)”.
On to `CO/C=C(/C(=O)N1CCC(c2nc(C3=NOC(c4c(F)cccc4F)C3)cs2)CC1)c1cc(C)ccc1C` (stereo not shown) [Compound I-14], for which the Control effect entry is, setting by setting: (1.25 mg/L, Table 1) “A (90%≤A≤100%)”; (5 mg/L, Table 1) “A (90%≤A≤100%)”; (20 mg/L, Table 1) “A (90%≤A≤100%)”.
For the compound `CO/C=C(/C(=O)N1CCC(c2nc(C3=NOC(c4c(F)cccc4F)C3)cs2)CC1)c1cc(Cl)ccc1Cl` (stereo not shown) [Compound I-15], the Control effect entry is on record as “C (60%≤C<75%)” (5 mg/L, Table 1) and “C (60%≤C<75%)” (20 mg/L, Table 1).
Regarding `C=CC(=O)N1CCC(c2nc(C3=NOC(c4c(F)cccc4F)C3)cs2)CC1` (stereo not shown) [Compound I-16], the Control effect result is, setting by setting: (1.25 mg/L, Table 1) “D (45%≤D<60%)”; (5 mg/L, Table 1) “C (60%≤C<75%)”; (20 mg/L, Table 1) “B (75%≤B<90%)”.
The matching figures for `CCO/C=C/C(=O)N1CCC(c2nc(C3=NOC(c4c(F)cccc4F)C3)cs2)CC1` (stereo not shown) [Compound I-17]: “A (90%≤A≤100%)”, “A (90%≤A≤100%)” and “A (90%≤A≤100%)”.
In the case of `CO/N=C(/C(=O)N1CCC(c2nc(C3=NOC(c4c(F)cccc4F)C3)cs2)CC1)c1ccccc1` (stereo not shown) [Compound I-18], the Control effect entry (20 mg/L, Table 1) is listed as “D (45%≤D<60%)”.
Consider `CO/N=C(/C(=O)N1CCC(c2nc(C3=NOC(c4c(F)cccc4F)C3)cs2)CC1)c1ccccc1C` (stereo not shown) [Compound I-19], for which the Control effect entry by setting is: under setting [1], “B (75%≤B<90%)”; under setting [2], “A (90%≤A≤100%)”; (1.25 mg/L, Table 1) “A (90%≤A≤100%)”; under setting [3], “A (90%≤A≤100%)”; (5 mg/L, Table 1) “A (90%≤A≤100%)”; (20 mg/L, Table 1) “A (90%≤A≤100%)”.
With `CO/N=C(/C(=O)N1CCC(c2nc(C3=NOC(c4c(F)cccc4F)C3)cs2)CC1)c1cccc(C)c1` (stereo not shown) [Compound I-20], the Control effect entry (20 mg/L, Table 1) is recorded as “D (45%≤D<60%)”.
Still for that read-out and setting: the entry for `CO/N=C(/C(=O)N1CCC(c2nc(C3=NOC(c4c(F)cccc4F)C3)cs2)CC1)c1ccc(C)cc1C` (stereo not shown) [Compound I-21] is “D (45%≤D<60%)”.
Take `CO/N=C/C(=O)N1CCC(c2nc(C3=NOC(c4c(F)cccc4F)C3)cs2)CC1` (stereo not shown) [Compound I-22]: the Control effect entry reads like this: under setting [1], “B (75%≤B<90%)”; under setting [2], “B (75%≤B<90%)”; (1.25 mg/L, Table 1) “A (90%≤A≤100%)”; under setting [3], “A (90%≤A≤100%)”; (5 mg/L, Table 1) “A (90%≤A≤100%)”; (20 mg/L, Table 1) “A (90%≤A≤100%)”.
Turning to `CO/N=C(\C)C(=O)N1CCC(c2nc(C3=NOC(c4c(F)cccc4F)C3)cs2)CC1` (stereo not shown) [Compound I-23], the Control effect entry runs as follows: (1.25 mg/L, Table 1) “D (45%≤D<60%)”; (5 mg/L, Table 1) “B (75%≤B<90%)”; (20 mg/L, Table 1) “B (75%≤B<90%)”.
For `CC/C(=N\OC)C(=O)N1CCC(c2nc(C3=NOC(c4c(F)cccc4F)C3)cs2)CC1` (stereo not shown) [Compound I-24], the Control effect entry is on record as “C (60%≤C<75%)” (1.25 mg/L, Table 1); “B (75%≤B<90%)” (5 mg/L, Table 1); “A (90%≤A≤100%)” (20 mg/L, Table 1).
The matching figures for `CO/N=C(/C(=O)N1CCC(c2nc(C3=NOC(c4c(F)cccc4F)C3)cs2)CC1)c1cc(C)ccc1C` (stereo not shown) [Compound I-25]: “C (60%≤C<75%)”, “B (75%≤B<90%)” and “A (90%≤A≤100%)”.
The matching figures for `CCO/N=C(/C(=O)N1CCC(c2nc(C3=NOC(c4c(F)cccc4F)C3)cs2)CC1)c1cc(C)ccc1C` (stereo not shown) [Compound I-26]: “D (45%≤D<60%)”, “D (45%≤D<60%)” and “C (60%≤C<75%)”.
Take `CCO/N=C(\C#N)C(=O)N1CCC(c2nc(C3=NOC(c4c(F)cccc4F)C3)cs2)CC1` (stereo not shown) [Compound I-28]: the Control effect result runs as follows: (5 mg/L, Table 1) “B (75%≤B<90%)”; (20 mg/L, Table 1) “A (90%≤A≤100%)”.
Take `CCO/N=C/C(=O)N1CCC(c2nc(C3=NOC(c4c(F)cccc4F)C3)cs2)CC1` (stereo not shown) [Compound I-29]: the Control effect result was “A (90%≤A≤100%)” (1.25 mg/L, Table 1); “A (90%≤A≤100%)” (5 mg/L, Table 1); “A (90%≤A≤100%)” (20 mg/L, Table 1).
In the case of `CCO/C(C)=C/C(=O)N1CCC(c2nc(C3=NOC(c4c(F)cccc4F)C3)cs2)CC1` (stereo not shown) [Compound I-30], the Control effect result is listed as “B (75%≤B<90%)” (1.25 mg/L, Table 1); “B (75%≤B<90%)” (5 mg/L, Table 1); “A (90%≤A≤100%)” (20 mg/L, Table 1).
`COC(CC(=O)N1CCC(c2nc(C3=NOC(c4c(F)cccc4F)C3)cs2)CC1)OC` (stereo not shown) [II-1]: the Control effect entry runs as follows: (1.25 mg/L, Table 1) “A (90%≤A≤100%)”; (5 mg/L, Table 1) “A (90%≤A≤100%)”; (20 mg/L, Table 1) “A (90%≤A≤100%)”.
Take `CCOC(CC(=O)N1CCC(c2nc(C3=NOC(c4c(F)cccc4F)C3)cs2)CC1)OCC` (stereo not shown) [II-2]: the Control effect entry under setting [1] is given as “B (75%≤B<90%)”; the Control effect result under setting [2] was “A (90%≤A≤100%)”; the Control effect result (1.25 mg/L, Table 1) is “A (90%≤A≤100%)”; the Control effect entry under setting [3] is listed as “A (90%≤A≤100%)”; the Control effect entry (5 mg/L, Table 1) is recorded as “A (90%≤A≤100%)”; the Control effect entry (20 mg/L, Table 1) is “A (90%≤A≤100%)”.
Regarding `CCCOC(CC(=O)N1CCC(c2nc(C3=NOC(c4c(F)cccc4F)C3)cs2)CC1)OCC` (stereo not shown) [II-4], where the note is “0.078 mg/L, in words”, the “efficacy compared with dimethomorph and cyazofamid” value was “superior to that of dimethomorph and cyazofamid”. The “efficacy compared with oxathiapiprolin” value (0.078 mg/L, in words) is “equivalent to that of oxathiapiprolin at the same concentration”. Also, the Control effect reads like this: (0.078 mg/L, re-screening) not below 90%; under setting [1], “A (90%≤A≤100%)”; under setting [2], “A (90%≤A≤100%)”; (1.25 mg/L, Table 1) “A (90%≤A≤100%)”; under setting [3], “A (90%≤A≤100%)”; (5 mg/L, Table 1) “A (90%≤A≤100%)”. The Control effect result (20 mg/L, Table 1) is recorded as “A (90%≤A≤100%)”. Where the note is “re-screening, in words”, the bactericidal activity result is recorded as “excellent bactericidal activity”.
Regarding `CCOC(CC(=O)N1CCC(c2nc(C3=NOC(c4c(F)cccc4F)C3)cs2)CC1)OCc1ccccc1` (stereo not shown) [II-5], the Control effect result runs as follows: (5 mg/L, Table 1) “D (45%≤D<60%)”; (20 mg/L, Table 1) “A (90%≤A≤100%)”.
For `COC(OC)C(C)C(=O)N1CCC(c2nc(C3=NOC(c4c(F)cccc4F)C3)cs2)CC1` (stereo not shown) [II-6], the Control effect result was “D (45%≤D<60%)” (5 mg/L, Table 1) and “C (60%≤C<75%)” (20 mg/L, Table 1).
`CCC(C(=O)N1CCC(c2nc(C3=NOC(c4c(F)cccc4F)C3)cs2)CC1)C(OC)OC` (stereo not shown) [II-7]: the Control effect result was “D (45%≤D<60%)” (5 mg/L, Table 1) and “B (75%≤B<90%)” (20 mg/L, Table 1).
For `CCCC(C(=O)N1CCC(c2nc(C3=NOC(c4c(F)cccc4F)C3)cs2)CC1)C(OC)OC` (stereo not shown) [II-8], the Control effect entry is recorded as “D (45%≤D<60%)” (1.25 mg/L, Table 1); “C (60%≤C<75%)” (5 mg/L, Table 1); “A (90%≤A≤100%)” (20 mg/L, Table 1).
For the compound `CCCCC(C(=O)N1CCC(c2nc(C3=NOC(c4c(F)cccc4F)C3)cs2)CC1)C(OC)OC` (stereo not shown) [II-9], the Control effect entry is “D (45%≤D<60%)” (1.25 mg/L, Table 1); “B (75%≤B<90%)” (5 mg/L, Table 1); “A (90%≤A≤100%)” (20 mg/L, Table 1).
